Laboratory results: article PMC11271582
“And” between values parts separate entries of the source, which are not always exact repeats. Identical values can stand only once.

Experiments:
[1] = tested on: T1, WT (transient replicon assay, sgDVs-R2A, DENV 2/16681); assay: microbe, parasite or virus in culture; set-up: species or system Huh7-derived cells (sheet title cut off after 'Hu'); transient DENV-2 replicon assay, inhibition of wild-type replicon replication; conditions: wild-type replicon, replicate
T1 construct: 16681 wild-type subgenomic reporter replicon sgDVs-R2A

ZIKV NS4B = ZIKV NS4B (Zika virus, UniProt A0A024B7W1); assay: imaging-based colocalization of click-labeled PAL compound with ZIKV NS4B (pIRO-Z); conditions: 1 µM, Huh7/Lunet-T7 cells
Calnexin-HA = biological target: T2, Calnexin-HA (Homo sapiens, UniProt P27824); assay: photoaffinity labeling and click labeling on agarose beads (specificity control); type: binding; conditions: 1 µM, UV 365 nm
T2 construct: expressed in transfected cells
T2 sequence (P27824 21-592): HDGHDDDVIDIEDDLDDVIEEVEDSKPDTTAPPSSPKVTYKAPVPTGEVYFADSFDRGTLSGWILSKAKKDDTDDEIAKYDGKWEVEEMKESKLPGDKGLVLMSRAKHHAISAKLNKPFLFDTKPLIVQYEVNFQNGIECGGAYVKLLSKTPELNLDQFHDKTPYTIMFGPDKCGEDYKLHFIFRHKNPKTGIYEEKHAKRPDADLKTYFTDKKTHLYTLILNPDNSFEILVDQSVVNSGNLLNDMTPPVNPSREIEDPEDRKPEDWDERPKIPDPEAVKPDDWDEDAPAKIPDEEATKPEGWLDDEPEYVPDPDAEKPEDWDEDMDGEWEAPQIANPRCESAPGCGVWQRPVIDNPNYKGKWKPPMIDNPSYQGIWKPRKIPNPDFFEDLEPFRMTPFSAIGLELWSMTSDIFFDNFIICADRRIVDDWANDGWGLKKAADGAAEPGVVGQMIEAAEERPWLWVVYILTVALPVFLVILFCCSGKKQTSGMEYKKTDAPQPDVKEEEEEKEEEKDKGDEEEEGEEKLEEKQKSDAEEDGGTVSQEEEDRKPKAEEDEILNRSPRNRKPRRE

DENV NS4B and NS3 = DENV NS4B and NS3 (Dengue virus type 2, UniProt P29990); assay: imaging-based colocalization of click-labeled PAL compounds with DENV proteins (pIRO-D); conditions: 1 µM; pIRO-D WT, Huh7/Lunet-T7 cells
DENV-1 or DENV-2 = conditions: non-human primates; cited from earlier work
DENV NS1-5 polyprotein = DENV NS1-5 polyprotein (Dengue virus type 2, UniProt P29990); assay: polyprotein processing by western blot (pIRO-D system); conditions: 35 nM, regardless of the time of addition
ZIKV = tested on: ZIKV; set-up: method as in PMID 34671169; conditions: cited from earlier work
[2] = tested on: DENV vesicle packets (VPs) formation; assay: determination of VPs formation (pIRO-D system, TEM) in Huh7/Lunet-T7 cells
DENV-2/16681 = tested on: DENV-2/16681; set-up: method as in PMID 34671169; conditions: pan-serotype; cited from earlier work
cells = tested on: cells; set-up: method as in Kaptein et al, Nature, 2021; conditions: at used concentrations; ref Kaptein et al, Nature, 2021; cited from earlier work
YFV = conditions: cited from earlier work
[3] = tested on: protein synthesis (RNA translation) in Huh7/Lunet-T7 cells; assay: ribopuromycylation assay; type: cell-based, human; conditions: 200 µg/ml
Description: A protocol for the ribopuromycylation method to detect nascent protein synthesis[52] was integrated into the workflow for the determination of VPs formation. In brief, cycloheximide (CHX, 200 µg/ml) was added to cells 30 min before the start of a four-hour treatment with 35 nM JNJ-A07 (or vehicle control) to block de novo protein synthesis. Thereafter, the medium was replaced with DMEMComplete prewarmed to 37 °C, to which puromycin was added at a final concentration of 10 µg/ml. Cells were incubated at 37 °C for 5 minutes and then either fixed for microscopy or lysed for western blot analysis.

Chain of DENV NS4B and NS3 (P29990 2244-2491): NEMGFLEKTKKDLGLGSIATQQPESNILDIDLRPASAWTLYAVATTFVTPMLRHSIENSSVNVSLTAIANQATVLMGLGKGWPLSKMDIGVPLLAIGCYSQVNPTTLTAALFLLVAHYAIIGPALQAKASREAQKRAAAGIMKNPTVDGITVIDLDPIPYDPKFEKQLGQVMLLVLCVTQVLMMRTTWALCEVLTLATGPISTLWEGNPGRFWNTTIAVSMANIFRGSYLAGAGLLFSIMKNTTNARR
Chain of ZIKV NS4B (A0A024B7W1 2270-2520): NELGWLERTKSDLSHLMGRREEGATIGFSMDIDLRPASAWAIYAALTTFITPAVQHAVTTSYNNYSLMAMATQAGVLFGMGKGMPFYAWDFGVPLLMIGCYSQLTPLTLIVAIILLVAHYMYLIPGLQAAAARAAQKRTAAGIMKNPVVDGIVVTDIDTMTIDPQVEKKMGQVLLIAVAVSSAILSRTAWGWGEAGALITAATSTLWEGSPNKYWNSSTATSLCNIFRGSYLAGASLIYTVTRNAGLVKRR
Chain of DENV NS1-5 polyprotein (P29990 2244-2491): as the sequence (P29990 2244-2491) above

## C#CCCC1(CCn2cc(C(=O)C(Nc3cc(OC)cc(OCCOC)c3)c3ccc(Cl)cc3OC)c3cc(OC(F)(F)F)ccc32)N=N1 (stereo not shown) [Compound A]
[1]; Dengue virus, Experimental series=1
  EC50: 0.065 µM
[1]; Dengue virus, Experimental series=2
  EC50: 0.061 µM
[1]; Dengue virus, Experimental series=3
  EC50: 0.0529 µM
[1]; Experimental series=1, inhibitor
  EC50: 0.058 µM and 0.052 µM
[1]; Experimental series=2, inhibitor
  EC50: 0.048 µM and 0.049 µM
[1]; Experimental series=3, inhibitor
  EC50: 0.0683 µM and 0.0643 µM
ZIKV NS4B
  colocalization of labeled compound with ZIKV NS4B: low-level, albeit significant colocalization
Calnexin-HA
  Cy5.5 labeling of HA-tagged Calnexin: No labeling
DENV NS4B and NS3
  colocalization of labeled PAL compound with NS4B (and NS3), Pearson correlation: high degree of colocalization

## C#CCCC1(CCn2cc(C(=O)C(Nc3cc(OC)cc(OCCOC)c3)c3ccc(Cl)cc3OC)c3cc(OC(F)(F)F)ccc32)N=N1 (stereo not shown) [Compound B]
DENV NS4B and NS3
  colocalization of labeled PAL compound with NS4B (and NS3), Pearson correlation: significantly lower colocalization

## COc1cc(N[C@H](C(=O)c2c[nH]c3ccc(OC(F)(F)F)cc23)c2ccc(Cl)cc2OC)cc(S(C)(=O)=O)c1 [Mosnodenvir]
DENV-1 or DENV-2
  efficacy against infection with either DENV-1 or DENV-2: highly effective

## COc1cc(NC(C(=O)N2CCc3ccc(OC(F)(F)F)cc32)c2ccc(Cl)cc2)cc(OCCCC(=O)O)c1 (stereo not shown) [JNJ-A07]
DENV NS1-5 polyprotein
  effect on polyprotein processing: no apparent effect on polyprotein processing
ZIKV
  antiviral activity against ZIKV: marginal antiviral activity
[2]; 35 nM
  VPE diameter: no effect on VPE diameter
[2]; 35 nM added early, 4 h after transfection
  VPs in time-of-addition experiment: almost complete loss of VPs
[2]; 35 nM added late, 16 h after transfection
  VPE formation efficiency in time-of-addition experiment: reduced to a much lower degree
[2]; 35 nM with CHX 200 µg/ml, compared to CHX only
  VPE decay with protein synthesis blocked: does not accelerate VPE decay
[2]; 35 nM, NS4B resistance mutants
  VPE efficiency: not affected
DENV-2/16681
  activity against DENV: nano- to picomolar
cells
  cytotoxicity: not cytotoxic
YFV
  antiviral activity against YFV lower compared to an average value for a DENV isolate: about 1000 times

## C[C@@H]1C[C@@H]([C@H](O)CC2CC(=O)NC(=O)C2)C(=O)[C@@H](C)C1 [CHX, cycloheximide]
[3]
  RNA translation (puromycin incorporation): completely arrested RNA translation
